Reference: ChEMBL document CHEMBL1212818, “Polyamines inhibit carbonic anhydrases by anchoring to the zinc-coordinated water molecule” (J Med Chem, 2010)

Legend:
Carbonic anhydrase 14 = Carbonic anhydrase 14 (Homo sapiens, UniProt Q9ULX7)
[1] = biological target: Carbonic anhydrase 5B, mitochondrial (Homo sapiens, UniProt Q9Y2D0)
Carbonic anhydrase 15 = biological target: T1, Carbonic anhydrase 15 (Mus musculus, UniProt Q99N23)
T1 sequence (Q99N23 whole entry): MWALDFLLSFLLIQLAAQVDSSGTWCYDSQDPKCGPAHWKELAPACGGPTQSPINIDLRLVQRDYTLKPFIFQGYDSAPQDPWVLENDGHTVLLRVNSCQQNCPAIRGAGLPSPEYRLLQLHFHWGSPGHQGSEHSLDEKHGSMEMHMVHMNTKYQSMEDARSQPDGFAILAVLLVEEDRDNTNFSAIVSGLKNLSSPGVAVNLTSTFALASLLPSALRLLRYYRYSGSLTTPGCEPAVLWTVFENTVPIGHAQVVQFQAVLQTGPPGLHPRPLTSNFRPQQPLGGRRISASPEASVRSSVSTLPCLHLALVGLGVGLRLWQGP

Carbonic anhydrase 13 = Carbonic anhydrase 13 (Mus musculus, UniProt Q9D6N1)
Carbonic anhydrase 7 = Carbonic anhydrase 7 (Homo sapiens, UniProt P43166)
Carbonic anhydrase 2 = Carbonic anhydrase 2 (Homo sapiens, UniProt P00918)
[2] = biological target: Carbonic anhydrase 5A, mitochondrial (Homo sapiens, UniProt P35218)
Carbonic anhydrase 3 = Carbonic anhydrase 3 (Homo sapiens, UniProt P07451)
Carbonic anhydrase 6 = Carbonic anhydrase 6 (Homo sapiens, UniProt P23280)
Carbonic anhydrase 9 = Carbonic anhydrase 9 (Homo sapiens, UniProt Q16790)
Carbonic anhydrase 4 = Carbonic anhydrase 4 (Homo sapiens, UniProt P22748)
Carbonic anhydrase 1 = Carbonic anhydrase 1 (Homo sapiens, UniProt P00915)
Carbonic anhydrase 12 = Carbonic anhydrase 12 (Homo sapiens, UniProt O43570)
Sequence of Carbonic anhydrase 12 (O43570 whole entry): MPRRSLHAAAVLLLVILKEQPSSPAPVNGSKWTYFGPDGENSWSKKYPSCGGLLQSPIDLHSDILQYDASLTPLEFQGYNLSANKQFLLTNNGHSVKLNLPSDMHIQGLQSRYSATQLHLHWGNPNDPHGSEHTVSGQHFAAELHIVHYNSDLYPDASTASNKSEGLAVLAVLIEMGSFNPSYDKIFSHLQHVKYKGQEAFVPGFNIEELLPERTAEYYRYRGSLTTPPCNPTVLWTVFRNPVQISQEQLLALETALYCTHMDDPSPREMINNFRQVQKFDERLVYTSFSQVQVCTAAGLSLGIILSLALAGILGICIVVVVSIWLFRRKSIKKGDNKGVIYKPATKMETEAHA

Sequence of Carbonic anhydrase 1 (P00915 whole entry): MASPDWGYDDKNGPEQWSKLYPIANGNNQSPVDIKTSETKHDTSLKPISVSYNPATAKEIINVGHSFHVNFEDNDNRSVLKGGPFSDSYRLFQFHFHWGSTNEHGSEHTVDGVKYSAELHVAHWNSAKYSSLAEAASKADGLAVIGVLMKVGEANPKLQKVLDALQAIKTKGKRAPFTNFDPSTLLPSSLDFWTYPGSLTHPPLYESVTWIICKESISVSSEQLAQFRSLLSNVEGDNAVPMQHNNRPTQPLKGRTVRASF
Sequence of Carbonic anhydrase 13 (Q9D6N1 whole entry): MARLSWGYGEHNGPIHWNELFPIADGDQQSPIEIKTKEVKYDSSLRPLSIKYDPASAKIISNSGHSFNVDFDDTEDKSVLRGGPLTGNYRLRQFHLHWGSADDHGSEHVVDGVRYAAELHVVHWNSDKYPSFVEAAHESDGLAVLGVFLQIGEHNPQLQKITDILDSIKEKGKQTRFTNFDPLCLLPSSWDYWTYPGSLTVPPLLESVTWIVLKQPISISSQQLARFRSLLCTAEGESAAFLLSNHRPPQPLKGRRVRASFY
Sequence of Carbonic anhydrase 14 (Q9ULX7 whole entry): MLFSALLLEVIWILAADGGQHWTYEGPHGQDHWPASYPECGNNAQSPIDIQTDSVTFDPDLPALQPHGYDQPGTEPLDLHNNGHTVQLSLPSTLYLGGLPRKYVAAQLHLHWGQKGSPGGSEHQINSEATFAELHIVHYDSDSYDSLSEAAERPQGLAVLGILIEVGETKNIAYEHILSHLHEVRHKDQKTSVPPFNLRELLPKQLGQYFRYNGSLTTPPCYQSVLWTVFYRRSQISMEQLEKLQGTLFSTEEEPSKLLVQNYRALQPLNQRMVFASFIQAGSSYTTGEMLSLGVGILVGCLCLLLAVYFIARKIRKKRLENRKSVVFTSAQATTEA
Sequence of Carbonic anhydrase 3 (P07451 whole entry): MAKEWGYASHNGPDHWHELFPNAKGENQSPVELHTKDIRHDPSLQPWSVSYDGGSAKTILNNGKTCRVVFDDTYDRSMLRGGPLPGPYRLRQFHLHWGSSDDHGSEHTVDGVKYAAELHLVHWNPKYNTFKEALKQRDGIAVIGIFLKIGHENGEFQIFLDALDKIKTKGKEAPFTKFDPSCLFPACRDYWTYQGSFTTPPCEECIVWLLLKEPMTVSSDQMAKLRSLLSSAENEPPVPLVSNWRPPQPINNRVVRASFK
Sequence of Carbonic anhydrase 6 (P23280 whole entry): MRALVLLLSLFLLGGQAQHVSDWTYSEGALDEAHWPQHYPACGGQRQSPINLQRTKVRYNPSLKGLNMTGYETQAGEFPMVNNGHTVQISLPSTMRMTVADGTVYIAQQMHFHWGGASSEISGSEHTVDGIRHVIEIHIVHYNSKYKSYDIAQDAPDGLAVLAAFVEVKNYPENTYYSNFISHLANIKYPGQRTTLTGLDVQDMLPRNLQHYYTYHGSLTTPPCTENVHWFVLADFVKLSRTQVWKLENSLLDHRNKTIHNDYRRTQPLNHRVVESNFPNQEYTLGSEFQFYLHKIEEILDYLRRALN
Sequence of Carbonic anhydrase 7 (P43166 whole entry): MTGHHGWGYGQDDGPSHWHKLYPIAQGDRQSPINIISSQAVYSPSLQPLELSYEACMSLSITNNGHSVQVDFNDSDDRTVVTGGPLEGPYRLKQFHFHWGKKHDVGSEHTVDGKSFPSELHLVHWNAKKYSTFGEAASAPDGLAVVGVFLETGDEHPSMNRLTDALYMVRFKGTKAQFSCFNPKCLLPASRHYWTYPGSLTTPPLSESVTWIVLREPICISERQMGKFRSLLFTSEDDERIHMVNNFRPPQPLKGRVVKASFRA
Sequence of Carbonic anhydrase 5B, mitochondrial (Q9Y2D0 whole entry): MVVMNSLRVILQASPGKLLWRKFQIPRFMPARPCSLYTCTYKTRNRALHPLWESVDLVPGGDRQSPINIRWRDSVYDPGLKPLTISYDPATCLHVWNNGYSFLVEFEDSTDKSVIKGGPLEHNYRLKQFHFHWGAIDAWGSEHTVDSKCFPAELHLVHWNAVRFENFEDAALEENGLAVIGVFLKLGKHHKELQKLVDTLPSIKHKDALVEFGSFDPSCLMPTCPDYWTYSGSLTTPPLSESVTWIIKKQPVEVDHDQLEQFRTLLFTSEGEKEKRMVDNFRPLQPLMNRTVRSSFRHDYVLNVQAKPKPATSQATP
Sequence of Carbonic anhydrase 5A, mitochondrial (P35218 whole entry): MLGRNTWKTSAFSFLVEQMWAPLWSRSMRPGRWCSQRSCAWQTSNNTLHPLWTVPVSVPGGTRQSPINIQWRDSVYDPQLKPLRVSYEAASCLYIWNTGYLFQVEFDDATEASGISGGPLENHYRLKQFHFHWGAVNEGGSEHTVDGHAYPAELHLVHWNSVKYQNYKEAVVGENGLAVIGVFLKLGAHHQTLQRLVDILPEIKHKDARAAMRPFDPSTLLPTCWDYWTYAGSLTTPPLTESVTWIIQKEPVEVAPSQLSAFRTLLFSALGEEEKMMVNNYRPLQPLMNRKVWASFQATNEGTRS
Sequence of Carbonic anhydrase 4 (P22748 whole entry): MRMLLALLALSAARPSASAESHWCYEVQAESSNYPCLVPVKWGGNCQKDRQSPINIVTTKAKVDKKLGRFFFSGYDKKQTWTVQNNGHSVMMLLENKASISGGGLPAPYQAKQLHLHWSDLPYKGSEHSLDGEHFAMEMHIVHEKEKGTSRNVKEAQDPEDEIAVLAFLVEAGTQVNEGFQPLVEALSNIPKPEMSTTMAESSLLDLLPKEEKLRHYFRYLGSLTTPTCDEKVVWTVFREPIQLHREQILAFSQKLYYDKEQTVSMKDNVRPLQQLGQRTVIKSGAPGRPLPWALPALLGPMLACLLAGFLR

Row | SMILES | Ki (Carbonic anhydrase 14) | Ki [1] | Ki (Carbonic anhydrase 15) | Ki (Carbonic anhydrase 13) | Ki (Carbonic anhydrase 7) | Ki (Carbonic anhydrase 2) | Ki [2] | Ki (Carbonic anhydrase 3) | Ki (Carbonic anhydrase 6) | Ki (Carbonic anhydrase 9) | Ki (Carbonic anhydrase 4) | Ki (Carbonic anhydrase 1) | Ki (Carbonic anhydrase 12)
1 | Oc1ccccc1 [PHENOL] | – | > 500 µM | – | > 500 µM | > 500 µM | – | – | – | – | – | – | – | –
2 | CC(C)(C)OC(=O)N(CCCCN(CCCNC(=O)C(F)(F)F)C(=O)OC(C)(C)C)CCCNC(=O)C(F)(F)F | 85 µM | 103 µM | > 500 µM | 179 µM | 107 µM | 107 µM | 125 µM | 112 µM | 104 µM | – | 104 µM | > 500 µM | 175 µM
3 | O=C(NCCNCCNCCNC(=O)C(F)(F)F)C(F)(F)F | > 500 µM | > 500 µM | > 500 µM | > 500 µM | > 500 µM | > 500 µM | > 500 µM | > 500 µM | > 500 µM | > 500 µM | > 500 µM | > 500 µM | > 500 µM
4 | CC(C)(C)OC(=O)N(CCCN(CCNC(=O)C(F)(F)F)C(=O)OC(C)(C)C)CCNC(=O)C(F)(F)F | > 500 µM | 401 µM | > 500 µM | > 500 µM | > 500 µM | > 500 µM | 416 µM | > 500 µM | > 500 µM | > 500 µM | 309 µM | > 500 µM | > 500 µM
5 | CC(C)(C)OC(=O)N(CCNC(=O)C(F)(F)F)CCN(CCNC(=O)C(F)(F)F)C(=O)OC(C)(C)C | > 500 µM | > 500 µM | > 500 µM | > 500 µM | > 500 µM | > 500 µM | > 500 µM | > 500 µM | > 500 µM | > 500 µM | > 500 µM | > 500 µM | > 500 µM
6 | CN(C)CCN(C)CCN(C)CCN(C)C | 0.74 µM | 0.71 µM | 0.76 µM | 0.58 µM | 0.73 µM | 11.2 µM | 0.047 µM | 0.52 µM | 0.78 µM | 0.31 µM | 0.053 µM | > 500 µM | 0.52 µM
7 | CC(=O)NCCNc1cccc2ccccc12 | 34 µM | 107 µM | 110 µM | 127 µM | 1.24 µM | 121 µM | 106 µM | 128 µM | 109 µM | 12.2 µM | 12.3 µM | > 500 µM | 21.5 µM

Other lines, results leading:

Row | Ki (Carbonic anhydrase 14) | Ki [1] | Ki (Carbonic anhydrase 15) | Ki (Carbonic anhydrase 13) | Ki (Carbonic anhydrase 7) | Ki (Carbonic anhydrase 2) | Ki [2] | Ki (Carbonic anhydrase 3) | Ki (Carbonic anhydrase 6) | Ki (Carbonic anhydrase 9) | Ki (Carbonic anhydrase 4) | Ki (Carbonic anhydrase 1) | Ki (Carbonic anhydrase 12) | SMILES
8 | 115 µM | 107 µM | 236 µM | 136 µM | 108 µM | 110 µM | 131 µM | 132 µM | 114 µM | 144 µM | 103 µM | 137 µM | 165 µM | CC(C)(C)OC(=O)N(CCCN)CCCCN(CCCN)C(=O)OC(C)(C)C
9 | 6.7 µM | 1.05 µM | 110 µM | 12.6 µM | 1.09 µM | 11.3 µM | 1.26 µM | 11.5 µM | 1.1 µM | 11.4 µM | 0.116 µM | 136 µM | 10.2 µM | O=C(NCCCNCCCCNCCCNC(=O)C(F)(F)F)C(F)(F)F
10 | 36 µM | 59 µM | 66 µM | 66 µM | 58 µM | 75 µM | 50 µM | 63 µM | 53 µM | 48 µM | 44 µM | 115 µM | 68 µM | NCCNCCCNCCN
11 | 0.5 µM | 0.54 µM | 0.65 µM | 0.63 µM | 0.42 µM | 11 µM | 0.044 µM | 0.5 µM | 0.74 µM | – | 0.052 µM | 13.3 µM | 0.45 µM | NCCCCCN
12 | 12.1 µM | 49 µM | 59 µM | 52 µM | 45 µM | 64 µM | 38 µM | 48 µM | 43 µM | 39 µM | 35 µM | 100 µM | 57 µM | NCCNCCNCCN [TRIENTINE]
13 | 0.64 µM | 0.58 µM | 0.66 µM | 0.69 µM | 0.44 µM | 34.4 µM | 0.61 µM | 0.6 µM | 0.72 µM | 0.41 µM | 0.45 µM | 12.6 µM | 0.37 µM | NCCCCCCN
14 | 10.1 µM | 11 µM | 105 µM | 11.5 µM | 12.1 µM | 118 µM | 110 µM | 117 µM | 11.5 µM | 10.6 µM | 116 µM | 415 µM | 11.4 µM | NCCNCCN
15 | 125 µM | 54 µM | 104 µM | 131 µM | 108 µM | 112 µM | 62 µM | 96 µM | 156 µM | 117 µM | 108 µM | 122 µM | 112 µM | O=C(NCCNCCCNCCNC(=O)C(F)(F)F)C(F)(F)F
16 | 1 µM | 1.44 µM | 10 µM | 11.6 µM | 1.23 µM | 1.11 µM | 1.22 µM | 11.5 µM | 1.41 µM | 1.37 µM | 0.112 µM | 1.4 µM | 44.1 µM | NCCCCNCCCN [SPERMIDINE]
17 | 0.86 µM | 0.83 µM | 74 µM | 22.6 µM | 0.71 µM | – | 0.84 µM | 167 µM | 0.99 µM | 13.3 µM | – | 231 µM | 27.6 µM | NCCCNCCCCNCCCN [SPERMINE]
18 | 0.59 µM | 0.061 µM | 0.57 µM | 0.62 µM | 0.36 µM | 103 µM | 0.048 µM | 0.42 µM | 0.64 µM | 0.51 µM | 0.058 µM | > 500 µM | 0.38 µM | NCCNc1cccc2ccccc12
